We go through 56 compounds from the RepoRT retention time repository.

This data set is described as follows: Agilent InfinityLab Poroshell 120 SB-C18, 100 × 2.1 mm, 2.7 µm, 40 °C, 0.2 mL/min, estimated dead time 1.1 min; A: water + 0.1% formic acid; B: acetonitrile; gradient (min/%B) 0/2 15/95 16/95. The following applies: stereoisomer not certain.

`CC(=O)NC1C(O)OC(COP(=O)(O)O)C(O)C1O` (stereo unspecified): the LC retention time was 1.37 min.

Turning to `NC(=O)C1=CN(C2OC(COP(=O)(O)OP(=O)(O)OCC3OC(n4cnc5c(N)ncnc54)C(OP(=O)(O)O)C3O)C(O)C2O)C=CC1` (stereo unspecified), the LC retention time was 8.58 min.

Regarding `CC(C)CCC=O`, the LC retention time was 1.62 min.

As to `CC(O)C=O` (stereo unspecified), the LC retention time is 1.48 min.

For `CC(C)CC(N)C(=O)O` (stereo unspecified), the LC retention time was 6.01 min.

In the case of `O=C(O)C(=O)Cc1ccccc1`, the LC retention time was 1.62 min.

Regarding `CCCCCC=CCC=CC=CC=CC(SCC(N)C(=O)NCC(=O)O)C(O)CCCC(=O)O` (stereo unspecified), the LC retention time was 8.91 min.

Turning to `O=C(O)CCC(=O)O`, the LC retention time is 6.53 min.

For the compound `O=C(O)C1CC(O)C=N1` (stereo unspecified), the LC retention time was 2.51 min.

For `CCCCCCCCCCCCCCCC(=O)OC(CC(=O)[O-])C[N+](C)(C)C` (stereo unspecified), the LC retention time was 15.6 min.

For `Cc1cn(C2CC(O)C(CO)O2)c(=O)[nH]c1=O` (stereo unspecified), the LC retention time was 14.7 min.

As to `NC(CCC(=O)NC(CS)C(=O)NCC(=O)O)C(=O)O` (stereo unspecified), the LC retention time is 2.1 min.

On to `CC=CC(=O)O`, for which the LC retention time was 8.13 min.

Consider `O=c1[nH]cnc2nc[nH]c12`, for which the LC retention time was 2.51 min.

For `CCCCCCCCCC(O)CC(=O)O` (stereo unspecified), the LC retention time is 6.12 min.

Regarding `C=C(CC)C(=O)O`, the LC retention time was 1.62 min.

With `CCC(C)C(N)C(=O)O` (stereo unspecified), the LC retention time is 2.94 min.

In the case of `O=C(O)C1CCCN1` (stereo unspecified), the LC retention time is 1.41 min.

As for `Nc1ccn(C2CC(O)C(COP(=O)(O)OP(=O)(O)OP(=O)(O)O)O2)c(=O)n1` (stereo unspecified), the LC retention time is 4.62 min.

Consider `NCC(=O)NC1OC(COP(=O)(O)O)C(O)C1O` (stereo unspecified), for which the LC retention time is 13.5 min.

Regarding `COc1cc(C(O)C(=O)O)ccc1O` (stereo unspecified), the LC retention time was 1.37 min.

For `O=c1ccn(C2OC(COP(=O)(O)OP(=O)(O)OP(=O)(O)O)C(O)C2O)c(=O)[nH]1` (stereo unspecified), the LC retention time is 10.1 min.

On to `O=C(O)CC(O)C(=O)O` (stereo unspecified), for which the LC retention time was 4.45 min.

For the compound `CCCCCCCCCCCCCC=CC(O)C(COC1OC(CO)C(OC2OC(CO)C(O)C(O)C2O)C(O)C1O)NC(=O)CCCCCCCCCCCCCCCCCCCCC` (stereo unspecified), the LC retention time is 2.36 min.

Consider `O=C(O)c1cc(=O)[nH]c(=O)n1C1OC(COP(=O)(O)O)C(O)C1O` (stereo unspecified), for which the LC retention time is 8.32 min.

`NC(CCC(=O)NC(CSSCC(NC(=O)CCC(N)C(=O)O)C(=O)NCC(=O)O)C(=O)NCC(=O)O)C(=O)O` (stereo unspecified): the LC retention time is 2.87 min.

For `OCC1OC(O)C(O)C(O)C1O` (stereo unspecified), the LC retention time is 12 min.

Regarding `Nc1ncnc2c1ncn2C1OC(COP(=O)(O)OP(=O)(O)O)C(O)C1O` (stereo unspecified), the LC retention time was 2.87 min.

For `OCC(O)CO`, the LC retention time is 3.76 min.

Take `Nc1nc2c(ncn2C2CC(O)C(CO)O2)c(=O)[nH]1` (stereo unspecified): the LC retention time was 5.19 min.

With `O=C(CO)C(O)C(O)C(O)COP(=O)(O)O` (stereo unspecified), the LC retention time was 1.34 min.

For `NC1C(O)OC(CO)C(O)C1O` (stereo unspecified), the LC retention time is 1.62 min.

Take `NC(=O)c1ncn(C2OC(COP(=O)(O)O)C(O)C2O)c1N` (stereo unspecified): the LC retention time is 8.32 min.

Regarding `CC12CCC3C(CCC4=CC(=O)CCC43CO)C1CCC2=O` (stereo unspecified), the LC retention time was 6.37 min.

For the compound `CC(=O)NC1C(O)OC(CO)C(O)C1O` (stereo unspecified), the LC retention time was 2.94 min.

Regarding `NCC(=O)O`, the LC retention time was 2.87 min.

Consider `NC(CC(=O)O)C(=O)O` (stereo unspecified), for which the LC retention time is 1.34 min.

With `CCCCCCCCCCCCCC=CC(O)C(N)CO` (stereo unspecified), the LC retention time is 15.1 min.

For `O=P(O)(O)OCC1OC(O)C(O)C(O)C1O` (stereo unspecified), the LC retention time was 1.37 min.

On to `Nc1nc2c(ncn2C2CC(O)C(COP(=O)(O)OP(=O)(O)O)O2)c(=O)[nH]1` (stereo unspecified), for which the LC retention time was 11.7 min.

Take `NC(=O)c1ncn(C2OC(COP(=O)(O)O)C(O)C2O)c1NC=O` (stereo unspecified): the LC retention time is 1.34 min.

As for `Nc1ncnc2c1ncn2C1OC(CO)C(O)C1O` (stereo unspecified), the LC retention time is 4.62 min.

On to `NCCCCNCCCN`, for which the LC retention time was 1.45 min.

`CCCCCC(O)C=CC1C(O)CC(=O)C1CC=CCCCC(=O)O` (stereo unspecified): the LC retention time was 13.3 min.

With `CCCC(O)CC(=O)O` (stereo unspecified), the LC retention time was 12.4 min.

For `CC(O)C(=O)O` (stereo unspecified), the LC retention time was 3.37 min.

Regarding `CC(=O)SCCNC(=O)CCNC(=O)C(O)C(C)(C)COP(=O)(O)OP(=O)(O)OCC1OC(n2cnc3c(N)ncnc32)C(O)C1OP(=O)(O)O` (stereo unspecified), the LC retention time is 11.7 min.

As for `O=c1ccn(C2OC(COP(=O)(O)OP(=O)(O)O)C(O)C2O)c(=O)[nH]1` (stereo unspecified), the LC retention time was 13 min.

Take `CC(O)(CC(=O)O)CC(=O)SCCNC(=O)CCNC(=O)C(O)C(C)(C)COP(=O)(O)OP(=O)(O)OCC1OC(n2cnc3c(N)ncnc32)C(O)C1OP(=O)(O)O` (stereo unspecified): the LC retention time is 3.78 min.

Take `CC(=O)NC1C(OP(=O)(O)OP(=O)(O)OCC2OC(n3ccc(=O)[nH]c3=O)C(O)C2O)OC(CO)C(O)C1O` (stereo unspecified): the LC retention time was 5.47 min.

With `CC(CCCC(CO)COS(=O)(=O)O)C1CCC2C3C(O)CC4CC(O)CCC4(C)C3CC(O)C12C` (stereo unspecified), the LC retention time was 14.7 min.

For the compound `OCC1OC(OC2(CO)OC(CO)C(O)C2O)C(O)C(O)C1O` (stereo unspecified), the LC retention time is 4.1 min.

As to `Nc1ccn(C2CC(O)C(CO)O2)c(=O)n1` (stereo unspecified), the LC retention time is 4.1 min.

In the case of `CC(=O)C(=O)O`, the LC retention time is 2.51 min.

As for `CCCCCCCCCC=CC(=O)O`, the LC retention time was 12.7 min.

As to `NC(=O)c1cccnc1`, the LC retention time is 2.46 min.
